From patent US7632811B2, “Analogs of parathyroid hormone” (Societe de Conseils de Recherches et D'Applications …, priority 1995, dated 2009)
Read-outs that look alike come from different tables or passages of the source. Non-standard residues stand in square brackets, D forms with d. Residues, ends and D or L forms follow the SMILES beside them. Cha = N[C@@H](CC1CCCCC1)C(=O)O; Ac6c = NC1(C(=O)O)CCCCC1; Aib = CC(C)(N)C(=O)O

Target: T1, PTH receptor present on SaOS-2 (human osteosarcoma cells) (Homo sapiens, UniProt Q03431)
T1 construct: host or cells: SaOS-2 human osteosarcoma cells (intact, confluent monolayers)
T1 sequence (Q03431 27-593): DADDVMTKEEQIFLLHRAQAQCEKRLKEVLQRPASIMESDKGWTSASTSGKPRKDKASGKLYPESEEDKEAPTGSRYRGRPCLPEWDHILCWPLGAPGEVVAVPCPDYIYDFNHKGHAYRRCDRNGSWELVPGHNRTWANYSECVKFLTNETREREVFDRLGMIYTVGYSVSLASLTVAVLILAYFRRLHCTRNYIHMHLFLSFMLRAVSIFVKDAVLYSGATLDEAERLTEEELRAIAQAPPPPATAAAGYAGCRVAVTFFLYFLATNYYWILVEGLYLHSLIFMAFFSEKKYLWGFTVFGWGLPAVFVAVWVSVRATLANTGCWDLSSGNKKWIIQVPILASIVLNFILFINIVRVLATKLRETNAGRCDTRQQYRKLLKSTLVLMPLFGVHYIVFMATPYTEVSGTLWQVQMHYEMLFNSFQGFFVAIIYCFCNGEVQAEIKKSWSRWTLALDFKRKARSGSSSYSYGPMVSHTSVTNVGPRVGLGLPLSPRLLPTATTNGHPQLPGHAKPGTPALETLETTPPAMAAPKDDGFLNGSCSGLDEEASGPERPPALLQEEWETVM
Test: Binding to PTH receptor on SaOS-2 cells (competition with mono-125I-[Nle8,18,Tyr34(3-125I)]bPTH(1-34)NH2)
Conditions: 2 hrs at room temperature, read-out: Kd (half maximal inhibition of binding of mono-125I-[Nle8,18, Tyr34(3-125I)]bPTH(1-34)NH2)
Method: A. Binding to PTH Receptor
The peptides of the invention were tested for their ability to bind to the PTH receptor present on SaOS-2 (human osteosarcoma cells). SaOS-2 cells (American Type Culture Collection, Rockville, Md.; ATCC #HTB 85) were maintained in RPMI 1640 medium (Sigma, St. Louis, Mo.) supplemented with 10% fetal bovine serum (FBS) and 2 mM glutamine at 37EC in a humidified atmosphere of 5% CO2 in air. The medium was changed every three or four days, and the cells were subcultured every week by trypsinization.
SaOS-2 cells were maintained for four days until they had reached confluence. The medium was replaced with 5% FBS in RPMI 1640 medium and incubated for 2 hrs at room temperature with 10×10^4 cpm mono-^125I-[Nle^8,18, Tyr^34(3-^125I)]bPTH(1-34)NH2 in the presence of a competing peptides of the invention at various concentrations between 10^−11 M to 10^−4 M. The cells were washed four times with ice-cold PBS and lysed with 0.1 M NaOH, and the radioactivity associated with the cells was counted in a scintillation counter. Synthesis of mono-^125I-[Nle^8,18, Tyr^34(3-^125I)]bPTH(1-34)NH2 was carried out as described in Goldman, M. E., et al., Endocrinol., 123:1468 (1988).
The binding assay was conducted with various peptides of the invention, and the Kd value (half maximal inhibition of binding of mono-^125I-[Nle^8,18, Tyr^34(3-^125I)]bPTH(1-34)NH2) for each peptide was calculated.

Row | SMILES | Kd (Table I) | Kd (Table II)
1 | CC[C@H](C)[C@H](NC(=O)[C@H](CCC(=O)O)NC(=O)[C@H](CO)NC(=O)[C@@H](NC(=O)[C@@H](N)CO)C(C)C)C(=O)N[C@@H](CCC(N)=O)C(=O)N[C@@H](CC(C)C)C(=O)N[C@@H](CCSC)C(=O)N[C@@H](Cc1c[nH]cn1)C(=O)N[C@@H](CC(N)=O)C(=O)N[C@@H](CC(C)C)C(=O)NCC(=O)N[C@@H](CCCCN)C(=O)N[C@@H](Cc1c[nH]cn1)C(=O)N[C@@H](CC(C)C)C(=O)N[C@@H](CC(N)=O)C(=O)N[C@@H](CO)C(=O)N[C@@H](CCSC)C(=O)N[C@@H](CCC(=O)O)C(=O)N[C@@H](CCCNC(=N)N)C(=O)N[C@H](C(=O)N[C@@H](CCC(=O)O)C(=O)N[C@@H](Cc1c[nH]c2ccccc12)C(=O)N[C@@H](CC(C)C)C(=O)N[C@@H](CCCNC(=N)N)C(=O)N[C@@H](CCCCN)C(=O)N[C@@H](CCCCN)C(=O)N[C@@H](CC1CCCCC1)C(=O)N[C@@H](CCC(N)=O)C(=O)N[C@@H](CC(=O)O)C(=O)N[C@H](C(=O)N[C@@H](Cc1c[nH]cn1)C(=O)N[C@@H](CC(N)=O)C(=O)N[C@@H](Cc1ccccc1)C(N)=O)C(C)C)C(C)C [[Cha^28]hPTH(1-34)NH2] (H-SVSEIQLMHNLGKHLNSMERVEWLRKK[Cha]QDVHNF-NH2) | 50 nM | 
2 | CC[C@H](C)[C@H](NC(=O)[C@H](CCC(=O)O)NC(=O)[C@H](CO)NC(=O)[C@@H](NC(=O)[C@@H](N)CO)C(C)C)C(=O)N[C@@H](CCC(N)=O)C(=O)N[C@@H](CC(C)C)C(=O)N[C@@H](CCSC)C(=O)N[C@@H](Cc1c[nH]cn1)C(=O)N[C@@H](CC(N)=O)C(=O)N[C@@H](CC(C)C)C(=O)NCC(=O)N[C@@H](CCCCN)C(=O)N[C@@H](Cc1c[nH]cn1)C(=O)N[C@@H](CC(C)C)C(=O)N[C@@H](CC(N)=O)C(=O)N[C@@H](CO)C(=O)N[C@@H](CCSC)C(=O)N[C@@H](CCC(=O)O)C(=O)N[C@@H](CCCNC(=N)N)C(=O)N[C@H](C(=O)N[C@@H](CCC(=O)O)C(=O)N[C@@H](Cc1c[nH]c2ccccc12)C(=O)N[C@@H](CC(C)C)C(=O)N[C@@H](CCCNC(=N)N)C(=O)N[C@@H](CCCCN)C(=O)N[C@@H](CCCCN)C(=O)N[C@@H](CC1CCCCC1)C(=O)N[C@@H](CCC(N)=O)C(=O)N[C@@H](CC(=O)O)C(=O)N[C@@H](CC1CCCCC1)C(=O)N[C@@H](Cc1c[nH]cn1)C(=O)N[C@@H](CC(N)=O)C(=O)N[C@@H](Cc1ccccc1)C(N)=O)C(C)C [[Cha^28,31]hPTH(1-34)NH2] (H-SVSEIQLMHNLGKHLNSMERVEWLRKK[Cha]QD[Cha]HNF-NH2) | 60 nM | 
3 | CC[C@H](C)[C@H](NC(=O)[C@H](CO)NC(=O)[C@H](CCCCN)NC(=O)CNC(=O)[C@H](CCCCN)NC(=O)[C@H](CC(=O)O)NC(=O)[C@H](Cc1c[nH]cn1)NC(=O)[C@H](CC(C)C)NC(=O)[C@H](CC(C)C)NC(=O)[C@H](CCC(N)=O)NC(=O)[C@H](Cc1c[nH]cn1)NC(=O)[C@H](CCC(=O)O)NC(=O)[C@H](CO)NC(=O)[C@@H](NC(=O)[C@H](C)N)C(C)C)C(=O)N[C@@H](CCC(N)=O)C(=O)N[C@@H](CC(=O)O)C(=O)N[C@@H](CC(C)C)C(=O)N[C@@H](CCCNC(=N)N)C(=O)N[C@@H](CCCNC(=N)N)C(=O)N[C@@H](CCCNC(=N)N)C(=O)N[C@@H](CCC(=O)O)C(=O)N[C@@H](CC(C)C)C(=O)N[C@@H](CC(C)C)C(=O)N[C@@H](CCC(=O)O)C(=O)N[C@@H](CCCCN)C(=O)N[C@@H](CC(C)C)C(=O)N[C@@H](CC(C)C)C(=O)NC(C)(C)C(=O)N[C@@H](CCCCN)C(=O)NC1(C(=O)N[C@@H](Cc2c[nH]cn2)C(=O)N[C@H](C(=O)N[C@@H](C)C(N)=O)[C@@H](C)O)CCCCC1 [[Glu^22,25, Leu^23,28, Lys^26,30, Aib^29, Ahc^31]hPTHrP(1-34)NH2] (H-AVSEHQLLHDKGKSIQDLRRRELLEKLL[Aib]K[Ac6c]HTA-NH2) |  | 200 nM
4 | CC[C@H](C)[C@H](NC(=O)[C@H](CCC(=O)O)NC(=O)[C@H](CO)NC(=O)[C@@H](NC(=O)[C@@H](N)CO)C(C)C)C(=O)N[C@@H](CCC(N)=O)C(=O)N[C@@H](CC1CCCCC1)C(=O)N[C@@H](CCSC)C(=O)N[C@@H](Cc1c[nH]cn1)C(=O)N[C@@H](CC(N)=O)C(=O)N[C@@H](CC1CCCCC1)C(=O)NCC(=O)N[C@@H](CCCCN)C(=O)N[C@@H](Cc1c[nH]cn1)C(=O)N[C@@H](CC(C)C)C(=O)N[C@@H](CC(N)=O)C(=O)N[C@@H](CO)C(=O)N[C@@H](CCSC)C(=O)NC(C)(C)C(=O)N[C@@H](CCCNC(=N)N)C(=O)N[C@H](C(=O)N[C@@H](CCC(=O)O)C(=O)N[C@@H](Cc1c[nH]c2ccccc12)C(=O)N[C@@H](CC(C)C)C(=O)N[C@@H](CCCNC(=N)N)C(=O)N[C@@H](CCCCN)C(=O)N[C@@H](CCCCN)C(=O)N[C@@H](CC(C)C)C(=O)N[C@@H](CCC(N)=O)C(=O)N[C@@H](CC(=O)O)C(=O)N[C@H](C(=O)N[C@@H](Cc1c[nH]cn1)C(=O)N[C@@H](CC(N)=O)C(=O)N[C@@H](Cc1ccccc1)C(N)=O)C(C)C)C(C)C [[Cha^7,11, Aib^19]hPTH(1-34)NH2] (H-SVSEIQ[Cha]MHN[Cha]GKHLNSM[Aib]RVEWLRKKLQDVHNF-NH2) | 7 nM | 
5 | CC[C@H](C)[C@H](NC(=O)[C@H](CO)NC(=O)[C@H](CCCCN)NC(=O)CNC(=O)[C@H](CCCCN)NC(=O)[C@H](CC(=O)O)NC(=O)[C@H](Cc1c[nH]cn1)NC(=O)[C@H](CC(C)C)NC(=O)[C@H](CC(C)C)NC(=O)[C@H](CCC(N)=O)NC(=O)[C@H](Cc1c[nH]cn1)NC(=O)[C@H](CCC(=O)O)NC(=O)[C@H](CO)NC(=O)[C@@H](NC(=O)[C@H](C)N)C(C)C)C(=O)N[C@@H](CCC(N)=O)C(=O)N[C@@H](CC(=O)O)C(=O)N[C@@H](CC(C)C)C(=O)N[C@@H](CCCNC(=N)N)C(=O)N[C@@H](CCCNC(=N)N)C(=O)N[C@@H](CCCNC(=N)N)C(=O)N[C@@H](CC1CCCCC1)C(=O)N[C@@H](CC(C)C)C(=O)N[C@@H](CC(C)C)C(=O)N[C@@H](CCC(=O)O)C(=O)N[C@@H](CCCCN)C(=O)NC1(C(=O)N[C@@H](CC(C)C)C(=O)NC(C)(C)C(=O)N[C@@H](CCCCN)C(=O)N[C@@H](CC(C)C)C(=O)N[C@@H](Cc2c[nH]cn2)C(=O)N[C@H](C(=O)N[C@@H](C)C(N)=O)[C@@H](C)O)CCCCC1 [[Cha^22, Leu^23,28,31, Glu^25, Lys^26,30, Ahc^27, Aib^29]hPTHrP(1-34)NH2] (H-AVSEHQLLHDKGKSIQDLRRR[Cha]LLEK[Ac6c]L[Aib]KLHTA-NH2) |  | 60 nM
6 | CC[C@H](C)[C@H](NC(=O)[C@H](CCC(=O)O)NC(=O)[C@H](CO)NC(=O)[C@@H](NC(=O)[C@@H](N)CO)C(C)C)C(=O)N[C@@H](CCC(N)=O)C(=O)N[C@@H](CC(C)C)C(=O)N[C@@H](CCSC)C(=O)N[C@@H](Cc1c[nH]cn1)C(=O)N[C@@H](CC(N)=O)C(=O)N[C@@H](CC1CCCCC1)C(=O)NCC(=O)N[C@@H](CCCCN)C(=O)N[C@@H](Cc1c[nH]cn1)C(=O)N[C@@H](CC(C)C)C(=O)N[C@@H](CC(N)=O)C(=O)N[C@@H](CO)C(=O)N[C@@H](CCSC)C(=O)N[C@@H](CCC(=O)O)C(=O)N[C@@H](CCCNC(=N)N)C(=O)N[C@H](C(=O)N[C@@H](CCC(=O)O)C(=O)N[C@@H](Cc1c[nH]c2ccccc12)C(=O)N[C@@H](CC(C)C)C(=O)N[C@@H](CCCNC(=N)N)C(=O)N[C@@H](CCCCN)C(=O)N[C@@H](CCCCN)C(=O)N[C@@H](CC(C)C)C(=O)N[C@@H](CCC(N)=O)C(=O)N[C@@H](CC(=O)O)C(=O)N[C@H](C(=O)N[C@@H](Cc1c[nH]cn1)C(=O)N[C@@H](CC(N)=O)C(=O)N[C@@H](Cc1ccccc1)C(N)=O)C(C)C)C(C)C [[Cha^11]hPTH(1-34)NH2] (H-SVSEIQLMHN[Cha]GKHLNSMERVEWLRKKLQDVHNF-NH2) | 5 nM | 
